Laboratory results taken from patent publication US4064169A, “Bis-(meta-amidinophenoxy)-compounds and pharmacologically acceptable acid addition salts thereof” (Eisai Co., Ltd., priority 1976, dated 1977).

What was measured:
Assay in all cases: Antifungal Test (agar dilution M.I.C.)
Type in all cases: cell-based
Settings in all cases: Table 2; 37° C., 3 days (72 hours)
[1] = tested on: Candida albicans Yu-1200 IFM 4020
Procedure: (§1) Respective agar plates were prepared by dissolving compounds under test in aseptic water to make a two fold dilution series, taking each 1 milliliter of said diluted solutions and 9 ml of Sabouraud medium into a petri dish, and sufficiently admixing the same.
(§2) On the other hand, an inoculum was prepared by cultivating an examined fungus (microorganism) on the Sabouraud slant medium and suspending two loopful of the incubated fungus in 10 ml of sterilized physiological saline water.
(§3) One loopful of the inoculum was streaked on the above-mentioned agar plate. After the agar plate was incubated at a defined temperature for a predetermined period of time to determine the minimal inhibitory concentration (M.I.C.).
(§4) Incubation temperature:
(§5) Incubation time: 3 days (72 hours) and
(§6) Incubation time: 3 days (72 hours)
(§7) activity incubation conditions:
(§8) Incubation time 3 days (72 hours)
(§9) Incubation time 7 days (168 hours)
(§10) Incubation time 2 days (48 hours)

[2] = tested on: Candida albicans AHU 3656
Procedure: as §1, §2, §3, §4, §5, §6, §7, §8, §9, §10

[3] = tested on: Candida albicans NAKAGAWA IFM 4017
Procedure: as §1, §2, §3, §4, §5, §6, §7, §8, §9, §10

Measured: M.I.C.

C[C@@H]1[C@H](O)[C@@H](C)/C=C/C=C/CC/C=C/C=C/C=C/C=C/C(O[C@H]2O[C@H](C)[C@@H](O)[C@H](N)[C@@H]2O)CC2O[C@](O)(CC(O)C(O)CCC(O)CC(O)CC(O)CC(=O)O[C@H]1C)CC(O)C2C(=O)O (stereo partly drawn) [Nystatin, reference compound]
6.25 µg/mL: all assays above
